Test results: patent US9796733B2, “Imidazo-pyrazine derivatives useful as soluble guanylate cyclase activators” (Merck Sharp & Dohme Corp., priority 2014, dated 2017)

Key:
sGC α1/β1 heterodimer = target: T1, sGC α1/β1 heterodimer (Homo sapiens, UniProt Q02108+Q02153); assay: Cell-based sGC functional assay (CASA assay): cGMP generation in CHO-K1/sGC cells, HTRF detection; settings: for Emax: CHO-K1, percent activation relative to standard Compound A in CHO-K1/sGC cells, read-out: % Act.; for EC50: inflection point (IP) of cGMP generation in CHO-K1/sGC cells, 4P fit, activity expressed as percentage of Compound A
T1 construct: expressed in transfected cells; host or cells: CHO-K1 (clone #7, CHO-K1/sGC)
T1 sequence (Q02108 1-690): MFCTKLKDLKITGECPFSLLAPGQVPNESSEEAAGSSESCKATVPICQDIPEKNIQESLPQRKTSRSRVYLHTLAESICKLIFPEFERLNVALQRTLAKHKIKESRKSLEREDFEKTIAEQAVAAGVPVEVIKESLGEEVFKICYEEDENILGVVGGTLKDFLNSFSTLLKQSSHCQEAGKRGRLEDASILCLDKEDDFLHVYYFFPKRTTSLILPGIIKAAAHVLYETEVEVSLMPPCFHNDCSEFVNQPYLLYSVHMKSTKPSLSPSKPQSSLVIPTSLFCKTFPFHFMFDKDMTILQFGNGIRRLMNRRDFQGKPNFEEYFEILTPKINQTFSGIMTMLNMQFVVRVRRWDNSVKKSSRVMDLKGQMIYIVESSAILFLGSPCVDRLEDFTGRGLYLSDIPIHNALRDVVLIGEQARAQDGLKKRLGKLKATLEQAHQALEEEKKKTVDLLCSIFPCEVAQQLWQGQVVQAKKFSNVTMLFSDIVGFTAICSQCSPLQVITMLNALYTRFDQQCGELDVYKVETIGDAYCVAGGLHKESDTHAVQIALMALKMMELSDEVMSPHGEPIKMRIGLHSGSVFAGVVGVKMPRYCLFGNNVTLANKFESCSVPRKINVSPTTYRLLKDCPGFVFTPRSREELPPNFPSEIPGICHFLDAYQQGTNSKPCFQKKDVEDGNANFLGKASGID
T1 sequence (Q02153 1-619): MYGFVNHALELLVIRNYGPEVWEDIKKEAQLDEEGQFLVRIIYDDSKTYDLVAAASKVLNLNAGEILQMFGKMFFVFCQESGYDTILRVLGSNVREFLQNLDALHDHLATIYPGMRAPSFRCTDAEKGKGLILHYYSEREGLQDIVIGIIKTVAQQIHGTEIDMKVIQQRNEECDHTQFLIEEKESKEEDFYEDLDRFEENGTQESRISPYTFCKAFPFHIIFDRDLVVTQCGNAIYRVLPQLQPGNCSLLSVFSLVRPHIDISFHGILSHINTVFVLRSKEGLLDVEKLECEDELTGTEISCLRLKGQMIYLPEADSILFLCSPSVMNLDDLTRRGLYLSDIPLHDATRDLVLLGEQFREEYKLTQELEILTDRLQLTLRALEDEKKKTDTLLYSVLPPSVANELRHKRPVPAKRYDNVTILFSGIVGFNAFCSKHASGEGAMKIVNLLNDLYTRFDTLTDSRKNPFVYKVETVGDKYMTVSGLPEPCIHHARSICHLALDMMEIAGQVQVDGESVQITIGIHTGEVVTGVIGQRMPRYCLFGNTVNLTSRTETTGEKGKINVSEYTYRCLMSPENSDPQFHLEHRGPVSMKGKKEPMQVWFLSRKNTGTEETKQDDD
Outline: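 Stable CHO-K1/sGC cells in EBSS buffer with 5 mM MgCl2, 0.05% BSA and 0.5 mM IBMX were incubated with compound (2.5% DMSO final) ±1 μM DETA-NO for 1 hr at 37° C. cGMP was measured by HTRF. Activation is expressed as % of reference HDA Compound A maximum, with IP and max fold induction from a 4P fit.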

[1] = test system: Spontaneously hypertensive rats (SHR); assay: Acute efficacy in spontaneously hypertensive rats (SHR): telemetry blood pressure lowering after a single oral dose; assay type: in vivo, rat
Outline: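 Male SHR carrying aortic telemetry implants (14-day recovery) received a single oral gavage of compound or vehicle (10% transcutol/20% Cremophor/70% water). Conscious blood pressure was sampled 30 s every 10 min and averaged hourly; change was taken against the prior-day vehicle baseline, reported as maximum peak SBP decrease at a given PO dose (mpk).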

Row | SMILES | Emax (sGC α1/β1 heterodimer) [%] | EC50 (sGC α1/β1 heterodimer) [nM] | Maximum peak decrease of systolic blood pressure (SBP) in SHR, Cat. ([1]; P.O. 1.0 mpk) | Maximum peak decrease of systolic blood pressure (SBP) in SHR, Cat. ([1]; P.O. 0.3 mpk) | Maximum peak decrease of systolic blood pressure (SBP) in SHR, Cat. ([1]; P.O. 3.0 mpk)
1 | Nc1nc(-c2cn3ccnc3c(CCC(F)(F)C(F)(F)F)n2)nc2c1C(c1ccc(Cl)cn1)(C1CC1)C(=O)N2 (stereo not drawn) [Example 245B, 4-amino-5-(5-chloropyridin-2-yl)-5-cyclopropyl-2-(8-(3,3,4,4,4-pentafluorobutyl)imidazo [1,2-a]pyrazin-6-yl)-5H-pyrrolo[2,3-d]pyrimidin-6(7H)-one] | 118 | 77 | C (Category C=SBP in SHRs>40 mmHg) |  | 
2 | CC1(c2ccc(F)cn2)C(=O)Nc2nc(-c3cn4ccnc4c(CCC(F)(F)C(F)(F)F)n3)nc(N)c21 (stereo not drawn) [Example 246B, 4-amino-5-(5-fluoropyridin-2-yl)-5-methyl-2-(8-(3,3,4,4,4-pentafluorobutyl)imidazo [1,2-a]pyrazin-6-yl)-5H-pyrrolo[2,3-d]pyrimidin-6(7H)-one] | 114 | 128 | B (Category B=SBP in SHRs 20-40 mmHg) |  | 
3 | CCC1(c2ccc(Cl)cc2)C(=O)Nc2nc(-c3cn4ccnc4c(CCC(F)(F)C(F)(F)F)n3)nc(N)c21 (stereo not drawn) [Example 247B, 4-amino-5-(4-chlorophenyl)-5-ethyl-2-(8-(3,3,4,4,4-pentafluorobutyl)imidazo [1,2-a]pyrazin-6-yl)-5H-pyrrolo[2,3-d]pyrimidin-6(7H)-one] | 117 | 152 |  | A (Category A=SBP in SHRs<20 mmHg) | 
4 | CCC1(c2ccc(F)cn2)C(=O)Nc2nc(-c3cn4ccnc4c(CCC(F)(F)C(F)(F)F)n3)nc(N)c21 (stereo not drawn) [Example 249A, 4-amino-5-ethyl-5-(5-fluoropyridin-2-yl)-2-(8-(3,3,4,4,4-pentafluorobutyl)imidazo [1,2-a]pyrazin-6-yl)-5H-pyrrolo[2,3-d]pyrimidin-6(7H)-one] | 96 | 759 |  |  | B (Category B=SBP in SHRs 20-40 mmHg)
5 | CCCc1ccc(C2(C)C(=O)Nc3nc(-c4cn5ccnc5c(CCC(F)(F)C(F)(F)F)n4)nc(N)c32)cn1 (stereo not drawn) [Example 250B, 4-amino-5-methyl-2-(8-(3,3,4,4,4-pentafluorobutyl)imidazo [1,2-a]pyrazin-6-yl)-5-(6-propylpyridin-3-yl)-5H-pyrrolo[2,3-d]pyrimidin-6(7H)-one] | 87 | 169 |  |  | A (Category A=SBP in SHRs<20 mmHg)
6 | CC(C)c1ccc(C2(C)C(=O)Nc3nc(-c4cn5ccnc5c(CCC(F)(F)C(F)(F)F)n4)nc(N)c32)cn1 (stereo not drawn) [Example 251B, 4-amino-5-(6-isopropylpyridin-3-yl)-5-methyl-2-(8-(3,3,4,4,4-pentafluorobutyl)imidazo [1,2-a]pyrazin-6-yl)-5H-pyrrolo[2,3-d]pyrimidin-6(7H)-one] | 85 | 100 |  |  | B (Category B=SBP in SHRs 20-40 mmHg)
7 | CC1(c2ccc(C3CC3)nn2)C(=O)Nc2nc(-c3cn4ccnc4c(CCC(F)(F)C(F)(F)F)n3)nc(N)c21 (stereo not drawn) [Example 253B, 4-amino-5-(6-cyclopropylpyridazin-3-yl)-5-methyl-2-(8-(3,3,4,4,4-pentafluorobutyl)imidazo [1,2-a]pyrazin-6-yl)-5H-pyrrolo[2,3-d]pyrimidin-6(7H)-one] | 83 | 51 | A (Category A=SBP in SHRs<20 mmHg) |  | 
8 | CC1(c2ccc(F)cc2)C(=O)Nc2nc(-c3cn4c(Br)cnc4c(CCC(F)(F)C(F)(F)F)n3)nc(N)c21 (stereo not drawn) [Example 254A, 4-amino-2-(3-bromo-8-(3,3,4,4,4-pentafluorobutyl)imidazo [1,2-a]pyrazin-6-yl)-5-(4-fluorophenyl)-5-methyl-5H-pyrrolo[2,3-d]pyrimidin-6(7H)-one] | 126 | 57 | C (Category C=SBP in SHRs>40 mmHg) |  | 
9 | CC1(c2ccc(F)cc2)C(=O)Nc2nc(-c3cn4c(Cl)cnc4c(CCC(F)(F)C(F)(F)F)n3)nc(N)c21 (stereo not drawn) [Example 255A, 4-amino-2-(3-chloro-8-(3,3,4,4,4-pentafluorobutyl)imidazo [1,2-a]pyrazin-6-yl)-5-(4-fluorophenyl)-5-methyl-5H-pyrrolo[2,3-d]pyrimidin-6(7H)-one] | 142 | 32 | C (Category C=SBP in SHRs>40 mmHg) |  | 
10 | CC1(c2ccc(F)cc2)C(=O)Nc2nc(-c3cn4c(Br)cnc4c(CCC(F)(F)F)n3)nc(N)c21 (stereo not drawn) [Example 264A, 4-amino-2-(3-bromo-8-(3,3,3-trifluoropropyl)imidazo[1,2-a]pyrazin-6-yl)-5-(4-fluorophenyl)-5-methyl-5H-pyrrolo[2,3-d]pyrimidin-6(7H)-one] | 123 | 239 | A (Category A=SBP in SHRs<20 mmHg) |  | 
11 | CC1(c2ccc(Cl)cc2)C(=O)Nc2nc(-c3cn4ccnc4cn3)nc(NCCC(F)(F)C(F)(F)F)c21 (stereo not drawn) [Example 286A, 5-(4-chlorophenyl)-2-(imidazo[1,2-a]pyrazin-6-yl)-5-methyl-4-((3,3,4,4,4-pentafluorobutyl)amino)-5H-pyrrolo[2,3-d]pyrimidin-6(7H)-one] | 83 | 124 |  |  | A (Category A=SBP in SHRs<20 mmHg)
12 | CNc1nc(-c2cn3ccnc3c(CCC(F)(F)C(F)(F)F)n2)nc2c1C(C)(c1ccc(F)cn1)C(=O)N2 (stereo not drawn) [Example 290B, 5-(5-fluoropyridin-2-yl)-5-methyl-4-(methylamino)-2-(8-(3,3,4,4,4-pentafluorobutyl)imidazo[1,2-a]pyrazin-6-yl)-5H-pyrrolo[2,3-d]pyrimidin-6(7H)-one] | 106 | 280 |  |  | B (Category B=SBP in SHRs 20-40 mmHg)
13 | CN1CCN(c2nc(-c3cn4ccnc4c(CCC(F)(F)C(F)(F)F)n3)nc3c2C(C)(c2ccc(F)cc2)C(=O)N3)CC1 (stereo not drawn) [Example 311A, 5-(4-fluorophenyl)-5-methyl-4-(4-methylpiperazin-1-yl)-2-(8-(3,3,4,4,4-pentafluorobutyl)imidazo[1,2-a]pyrazin-6-yl)-5H-pyrrolo[2,3-d]pyrimidin-6(7H)-one] | 92 | 29 |  | A (Category A=SBP in SHRs<20 mmHg) | 
14 | CCc1nc(-c2nc(N)c3c(n2)NC(=O)C3(C)c2ccc(Cl)c(F)c2)cn2ccnc12 (stereo not drawn) [Example 314B, 4-amino-5-(4-chloro-3-fluorophenyl)-2-(8-ethylimidazo[1,2-a]pyrazin-6-yl)-5-methyl-5H-pyrrolo[2,3-d]pyrimidin-6(7H)-one] | 104 | 434 |  |  | B (Category B=SBP in SHRs 20-40 mmHg)
15 | CC(C)Cc1nc(-c2nc(N)c3c(n2)NC(=O)C3(c2ccc(Cl)c(F)c2)C2CC2)cn2ccnc12 (stereo not drawn) [Example 315A, 4-amino-5-(4-chloro-3-fluorophenyl)-5-cyclopropyl-2-(8-isobutylimidazo[1,2-a]pyrazin-6-yl)-5H-pyrrolo[2,3-d]pyrimidin-6(7H)-one] | 113 | 119 |  |  | B (Category B=SBP in SHRs 20-40 mmHg)
16 | Nc1nc(-c2cn3ccnc3c(CCCC(F)(F)F)n2)nc2c1C(c1ccc(Cl)cc1)(C1CC1)C(=O)N2 (stereo not drawn) [Example 316B, 4-amino-5-(4-chlorophenyl)-5-cyclopropyl-2-(8-(4,4,4-trifluorobutyl)imidazo[1,2-a]pyrazin-6-yl)-5H-pyrrolo[2,3-d]pyrimidin-6(7H)-one] | 156 | 29 |  | B (Category B=SBP in SHRs 20-40 mmHg) | 
